Assay results: US9303005B2, “Use of dibenzofuranone derivatives to inhibit kinases” (priority 2010, dated 2016)

Columns and labels:
CK2 holoenzyme = CK2 holoenzyme (Homo sapiens (Human), UniProt P68400); test: capillary electrophoretic CK2 inhibition/activity test (E-peptide substrate); assay type: biochemical; settings: for IC50: capillary electrophoretic test, ten minutes pre-incubation; for CK2-activity at 10 μM: residual CK2 activity at 10 μM substance, values below 4% not reliably quantifiable
Chain of CK2 holoenzyme (P68400 whole entry): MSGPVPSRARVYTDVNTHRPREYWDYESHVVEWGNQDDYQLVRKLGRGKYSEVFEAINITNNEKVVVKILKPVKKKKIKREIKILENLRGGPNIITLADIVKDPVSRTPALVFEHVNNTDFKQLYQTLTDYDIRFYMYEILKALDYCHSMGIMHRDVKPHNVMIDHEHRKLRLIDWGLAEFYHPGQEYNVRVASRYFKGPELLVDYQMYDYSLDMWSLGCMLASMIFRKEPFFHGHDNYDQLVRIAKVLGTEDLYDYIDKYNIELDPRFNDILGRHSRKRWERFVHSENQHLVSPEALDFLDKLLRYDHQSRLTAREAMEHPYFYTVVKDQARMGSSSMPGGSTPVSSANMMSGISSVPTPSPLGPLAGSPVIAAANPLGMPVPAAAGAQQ
Chain of CK2 holoenzyme (P67870 whole entry partner): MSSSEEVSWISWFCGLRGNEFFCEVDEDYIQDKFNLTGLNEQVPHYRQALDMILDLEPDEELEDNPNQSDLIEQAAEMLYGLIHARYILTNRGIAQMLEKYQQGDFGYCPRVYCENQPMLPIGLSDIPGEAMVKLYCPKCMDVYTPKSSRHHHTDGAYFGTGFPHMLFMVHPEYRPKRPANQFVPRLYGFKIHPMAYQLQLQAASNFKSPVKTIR
Method: To this end, the capillary electrophoretic CK2 inhibition test using E-peptide as the substrate was carried out. […] Ten concentrations between 0.0001 μM and 10 μM were investigated for this purpose.
Kuckländer (Kuckländer and Töberich, 1982; Bollig, 2007).

LNCaP cells = test: MTT test, viability of LNCaP cells; assay type: cell-based, human; settings: relative to untreated cells; for viability at 25 µM / viability at 50 µM / viability at 75 µM: Homo sapiens, LNCaP
Method: The viability was determined with the aid of the MTT test.
A MTT test was used to determine the effect of TF on the viability of LNCaP cells. To this end, these cell lines were treated with three concentrations of TF (25 μM, 50 μM, 75 μM). The effect was determined after 24 h, 48 h and 72 h as the relative viability compared with untreated cells. […] After treating the LNCaP cells with TF, both the effects of increasing the concentration and also of prolonging the incubation time could be recorded. After 24 hours incubation with 25 μM of TF, the viability had already dropped to 45% and after the same incubation time with 50 μM of TF, it had dropped further to 30%. […] The effects after 24 h could be reinforced in each case by extending the incubation time. Thus, after 48 hours incubation with 25 μM, 50 μM and 75 μM of TF, a viability of 37%, 15% or 12% was observed. […] Thus, an incubation time of 24 h had only a small effect. […] Only at the highest concentration of 75 μM, a reduction to 45% after 48 h was recorded, and after 72 h, the viability was still 17% (FIG. 5B). […] In summary, it has been shown that the viability of LNCaP cells is reduced by both substances.

[1] = test system: PARP cleavage in LNCaP cells; test: PARP cleavage in LNCaP cells (Western Blot); assay type: cell-based, human
Method: The controls were cells which had only been treated with DMSO (0 μM). After SDS-PAGE and Western Blotting, complete PARP (115 kDa) and the 89 kDa fragment obtained after caspase cleavage with the aid of an anti-PARP antibody were labelled.
Next, we investigated whether the TF-mediated reduction in cell viability could be related to apoptotic events. To this end, cleavage of poly(ADP-ribose)-polymerase (PARP) in cells was assayed. Caspase 3 cleaves the 115 kDa PARP into two stable fragments: the 24 kDa DNA-binding N-terminal domain and the 89 kDa C-terminal fragment. This specific proteolysis of PARP characterizes the irreversible point of initiation apoptosis and can be assayed in a Western Blot of cell lysates with a specific PARP antibody. […] This effect was observed both after an incubation time of 24 h and also, more strongly, after 48 h.

[2] = test system: endogenous CK2 of LNCaP cells; test: CK2 activity in lysates of treated LNCaP cells (radiometric test); assay type: cell-based, human; settings: for endogenous CK2 activity of LNCaP cells: from 25 μM, 24 h or 48 h, relative to untreated cells
Method: The CK2 activity was determined using a radiometric test procedure. The relative activities of the samples were each relative to untreated cells. White bars show the CK2 activity after 24 h; grey bars show the CK2 activity after 48 h incubation with each inhibitor. For samples (A) treated with TF, double determinations were carried out (the mean value is given in each case).
LNCaP cells were incubated with TF in the same manner as in the experiments described above. After 24 h or 48 h, the CK2 activity of lysates was measured using radiometric CK2 testing. This investigation provided an indication as to whether the inhibition of TF found with the isolated enzyme could be observed in cellular systems. […] Cells were incubated for 24 h or 48 h with 25 μM, 50 μM or 75 μM of TF and then washed and lysed. The relative CK2 activity was calculated from these cell lysates. The reference was the CK2 activity of cell lysates from untreated cells incubated for corresponding periods. In order to compensate for any fluctuations in the radiometric test, in the case of TF, two samples per parameter were measured. As a qualitative control, the TBB samples were used and measured individually.
The observed reduction in CK2 activity was thus due to modulation of the CK2 enzyme activity. […] Altogether, it can be seen that TF reduces the endogenous CK2 activity in LNCaP cells. […] Proof of the inhibition of intracellular CK2 is provided by the ability of TF to permeate cells.

CK2α (CK2a) = CK2α (CK2a) (Homo sapiens (Human), UniProt P68400); test: Reaction Biology radiometric kinase selectivity test; assay type: biochemical; settings: 10 μM TF, 10 μM ATP; read-out: residual activity CK2α
Chain of CK2α (CK2a) (P68400 whole entry): as the sequence (P68400 whole entry) above

Aurora A = Aurora A (Homo sapiens (Human), UniProt O14965); test: as above; assay type: biochemical; settings: 10 μM TF, 10 μM ATP, relative kinase activity
Chain of Aurora A (O14965 whole entry): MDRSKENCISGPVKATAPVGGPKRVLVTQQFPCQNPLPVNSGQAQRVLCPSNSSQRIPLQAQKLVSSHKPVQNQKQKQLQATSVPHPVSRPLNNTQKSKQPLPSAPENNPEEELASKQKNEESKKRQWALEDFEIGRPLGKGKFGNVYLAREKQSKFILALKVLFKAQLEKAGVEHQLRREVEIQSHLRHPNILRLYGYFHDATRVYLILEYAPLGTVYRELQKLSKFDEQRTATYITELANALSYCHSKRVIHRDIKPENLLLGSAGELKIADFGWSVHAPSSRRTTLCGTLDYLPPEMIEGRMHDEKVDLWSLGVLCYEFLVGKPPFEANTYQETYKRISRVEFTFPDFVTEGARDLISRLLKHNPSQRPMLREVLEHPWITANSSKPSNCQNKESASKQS
Method: (§1) The listed PKs were incubated with 10 μM TF and 10 μM ATP. Next, the relative percentage kinase activity was determined (mean value from n=2). 100% activity was defined as the activity of the respective kinase in the absence of TF. The PK grouping was in accordance with Manning et al. (2002).
(§2) After the inhibitory potency of TF had been able to be established in LNCaP cells, the possibility that TF could be a selective CK2 inhibitor had to be investigated. To this end, the inhibiting effect of TF on 63 isolated human protein kinases (PK) was investigated by the firm “Reaction Biology” (Malvern, Pa., USA). These included representatives of PKs from all main groups of the human kinome (Manning et al., 2002). The results of this investigation are shown in FIG. 8, classified into the main human PK groups. In this series of tests, all of the PKs were each incubated with 10 μM of ATP and 10 μM of TF. In a subsequent radiometric test, the respective kinase activity with respect to a sample without TF was determined. Since the KM values of PK with respect to ATP occasionally differed substantially (Knight and Shokat, 2005), the results only allow a semi-quantitative comparison of inhibition by TF to be made. […] However, the different test parameters, such as substrate and ATP concentration, buffer, etc., must be taken into account and so a direct comparison of the inhibition data as a percentage is not possible at this point. The seven PKs which were inhibited the most strongly (>70%) are listed separately in Table 3.

CK2α′ (CK2a2) = CK2α′ (CK2a2) (Homo sapiens (Human), UniProt P19784); test: as above; assay type: biochemical; settings: 10 μM TF, 10 μM ATP; read-out: residual activity CK2α′
Chain of CK2α′ (CK2a2) (P19784 whole entry): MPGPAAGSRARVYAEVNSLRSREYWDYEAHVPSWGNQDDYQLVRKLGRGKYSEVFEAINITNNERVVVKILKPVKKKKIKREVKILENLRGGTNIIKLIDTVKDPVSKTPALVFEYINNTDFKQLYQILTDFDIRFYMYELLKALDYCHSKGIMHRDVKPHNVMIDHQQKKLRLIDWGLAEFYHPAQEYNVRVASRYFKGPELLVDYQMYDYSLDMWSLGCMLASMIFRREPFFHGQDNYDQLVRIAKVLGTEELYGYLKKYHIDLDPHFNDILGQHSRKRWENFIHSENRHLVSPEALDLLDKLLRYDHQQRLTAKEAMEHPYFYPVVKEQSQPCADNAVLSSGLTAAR
Method: as §1, §2

FLT4/VEGFR3 = FLT4/VEGFR3 (Homo sapiens (Human), UniProt P35916); test: as above; assay type: biochemical; settings: 10 μM TF, 10 μM ATP, relative kinase activity
Method: as §1, §2

IRAK4 = IRAK4 (Homo sapiens (Human), UniProt Q9NWZ3); test: as above; assay type: biochemical; settings: 10 μM TF, 10 μM ATP
Chain of IRAK4 (Q9NWZ3 whole entry): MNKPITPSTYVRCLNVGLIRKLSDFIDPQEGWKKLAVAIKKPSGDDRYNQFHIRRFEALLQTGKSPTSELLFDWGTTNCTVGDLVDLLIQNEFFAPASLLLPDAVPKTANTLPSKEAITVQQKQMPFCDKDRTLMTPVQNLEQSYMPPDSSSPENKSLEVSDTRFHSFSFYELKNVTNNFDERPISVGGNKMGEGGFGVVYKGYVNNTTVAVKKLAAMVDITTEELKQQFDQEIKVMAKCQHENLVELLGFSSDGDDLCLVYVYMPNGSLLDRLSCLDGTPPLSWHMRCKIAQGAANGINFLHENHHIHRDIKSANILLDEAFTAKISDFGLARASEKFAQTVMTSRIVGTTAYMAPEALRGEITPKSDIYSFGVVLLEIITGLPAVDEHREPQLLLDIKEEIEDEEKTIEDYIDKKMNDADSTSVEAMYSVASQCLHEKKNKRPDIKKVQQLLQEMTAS
Method: as §1, §2

KDR/VEGFR2 = KDR/VEGFR2 (Homo sapiens (Human), UniProt P35968); test: as above; assay type: biochemical; settings: 10 μM TF, 10 μM ATP, relative kinase activity
Chain of KDR/VEGFR2 (P35968 20-1356): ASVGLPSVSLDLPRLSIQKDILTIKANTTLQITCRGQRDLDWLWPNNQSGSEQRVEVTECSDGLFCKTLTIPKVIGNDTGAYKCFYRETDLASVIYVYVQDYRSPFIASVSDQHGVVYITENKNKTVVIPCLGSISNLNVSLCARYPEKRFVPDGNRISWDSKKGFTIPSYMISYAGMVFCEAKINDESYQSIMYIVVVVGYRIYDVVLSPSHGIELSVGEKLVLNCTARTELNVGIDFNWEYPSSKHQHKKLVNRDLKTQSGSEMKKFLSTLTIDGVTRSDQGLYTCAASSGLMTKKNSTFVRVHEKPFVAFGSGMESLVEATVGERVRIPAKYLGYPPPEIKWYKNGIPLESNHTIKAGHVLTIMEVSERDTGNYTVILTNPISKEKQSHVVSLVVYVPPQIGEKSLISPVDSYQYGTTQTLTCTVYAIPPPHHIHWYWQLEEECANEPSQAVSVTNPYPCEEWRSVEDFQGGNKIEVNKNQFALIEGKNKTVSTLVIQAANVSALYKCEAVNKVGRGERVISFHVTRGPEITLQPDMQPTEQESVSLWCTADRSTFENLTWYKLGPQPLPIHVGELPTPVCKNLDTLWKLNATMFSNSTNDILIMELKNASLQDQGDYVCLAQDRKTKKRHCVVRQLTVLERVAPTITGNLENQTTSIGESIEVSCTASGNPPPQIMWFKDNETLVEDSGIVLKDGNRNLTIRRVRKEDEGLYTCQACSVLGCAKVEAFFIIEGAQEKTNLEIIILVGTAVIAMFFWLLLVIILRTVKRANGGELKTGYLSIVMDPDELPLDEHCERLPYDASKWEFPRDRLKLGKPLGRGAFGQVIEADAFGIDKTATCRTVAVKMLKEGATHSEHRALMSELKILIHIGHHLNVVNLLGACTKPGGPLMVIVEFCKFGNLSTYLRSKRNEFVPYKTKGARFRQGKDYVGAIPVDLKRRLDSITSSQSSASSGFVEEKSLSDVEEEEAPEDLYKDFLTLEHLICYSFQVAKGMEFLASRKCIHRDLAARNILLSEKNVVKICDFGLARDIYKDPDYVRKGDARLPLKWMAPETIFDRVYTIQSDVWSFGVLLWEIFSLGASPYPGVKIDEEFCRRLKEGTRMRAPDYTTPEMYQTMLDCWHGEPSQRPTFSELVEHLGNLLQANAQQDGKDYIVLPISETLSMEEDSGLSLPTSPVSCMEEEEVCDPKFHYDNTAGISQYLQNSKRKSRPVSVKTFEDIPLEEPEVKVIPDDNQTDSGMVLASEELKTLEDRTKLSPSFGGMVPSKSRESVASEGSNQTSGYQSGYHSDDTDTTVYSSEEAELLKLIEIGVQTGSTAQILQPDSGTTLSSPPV
Method: as §1, §2

LBK1 = LBK1 (Homo sapiens (Human), UniProt Q15831); test: as above; assay type: biochemical; settings: 10 μM TF, 10 μM ATP
Method: as §1, §2

LCK = LCK (Homo sapiens (Human), UniProt P06239); test: as above; assay type: biochemical; settings: 10 μM TF, 10 μM ATP, relative kinase activity
Chain of LCK (P06239 whole entry): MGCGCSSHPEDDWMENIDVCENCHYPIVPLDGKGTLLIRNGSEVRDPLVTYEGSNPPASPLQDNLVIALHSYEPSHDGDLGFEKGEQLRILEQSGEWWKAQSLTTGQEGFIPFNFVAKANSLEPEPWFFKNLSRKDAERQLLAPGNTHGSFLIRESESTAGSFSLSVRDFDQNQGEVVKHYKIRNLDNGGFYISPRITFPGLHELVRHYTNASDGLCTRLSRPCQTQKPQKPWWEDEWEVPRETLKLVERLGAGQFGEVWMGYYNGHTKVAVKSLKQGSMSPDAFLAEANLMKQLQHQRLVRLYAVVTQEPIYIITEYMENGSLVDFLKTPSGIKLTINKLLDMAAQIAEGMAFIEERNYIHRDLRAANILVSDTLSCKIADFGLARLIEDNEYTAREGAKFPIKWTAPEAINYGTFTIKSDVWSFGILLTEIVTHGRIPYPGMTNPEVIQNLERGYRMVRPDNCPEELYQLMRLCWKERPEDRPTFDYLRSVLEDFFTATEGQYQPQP
Method: as §1, §2

MAPK14 = MAPK14 (Homo sapiens (Human), UniProt Q16539); test: as above; assay type: biochemical; settings: 10 μM TF, 10 μM ATP
Chain of MAPK14 (Q16539 whole entry): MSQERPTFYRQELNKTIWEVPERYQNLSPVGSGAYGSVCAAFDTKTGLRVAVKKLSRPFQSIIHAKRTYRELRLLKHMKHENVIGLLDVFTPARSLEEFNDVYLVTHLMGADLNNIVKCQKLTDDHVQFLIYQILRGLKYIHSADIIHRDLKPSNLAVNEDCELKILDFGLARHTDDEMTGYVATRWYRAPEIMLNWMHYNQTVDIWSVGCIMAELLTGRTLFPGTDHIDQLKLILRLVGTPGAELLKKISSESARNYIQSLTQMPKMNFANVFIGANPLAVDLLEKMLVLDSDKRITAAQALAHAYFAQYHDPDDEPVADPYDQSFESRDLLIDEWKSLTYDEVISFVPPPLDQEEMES
Method: as §1, §2

PAK4 = PAK4 (Homo sapiens (Human), UniProt O96013); test: as above; assay type: biochemical; settings: 10 μM TF, 10 μM ATP
Method: as §1, §2

PIM1 = PIM1 (Homo sapiens (Human), UniProt P11309); test: as above; assay type: biochemical; settings: 10 μM TF, 10 μM ATP, relative kinase activity
Chain of PIM1 (P11309 whole entry): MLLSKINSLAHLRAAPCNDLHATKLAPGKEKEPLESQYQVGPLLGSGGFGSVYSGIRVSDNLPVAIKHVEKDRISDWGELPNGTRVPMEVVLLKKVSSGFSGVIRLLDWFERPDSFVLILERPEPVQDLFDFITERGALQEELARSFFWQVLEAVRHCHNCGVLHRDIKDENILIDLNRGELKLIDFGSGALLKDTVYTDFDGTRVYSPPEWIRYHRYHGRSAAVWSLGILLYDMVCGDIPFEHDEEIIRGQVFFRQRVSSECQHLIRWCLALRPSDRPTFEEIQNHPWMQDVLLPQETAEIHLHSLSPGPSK
Method: as §1, §2

PKD2/PRKD2 = PKD2/PRKD2 (Homo sapiens (Human), UniProt Q9BZL6); test: as above; assay type: biochemical; settings: 10 μM TF, 10 μM ATP, relative kinase activity
Method: as §1, §2

SGK1 (d1-59, S422D) = SGK1 (d1-59, S422D) (Homo sapiens (Human), UniProt O00141, S422D); test: as above; assay type: biochemical; settings: 10 μM TF, 10 μM ATP, relative kinase activity
Chain of SGK1 (d1-59, S422D) (O00141 60-431 S422D): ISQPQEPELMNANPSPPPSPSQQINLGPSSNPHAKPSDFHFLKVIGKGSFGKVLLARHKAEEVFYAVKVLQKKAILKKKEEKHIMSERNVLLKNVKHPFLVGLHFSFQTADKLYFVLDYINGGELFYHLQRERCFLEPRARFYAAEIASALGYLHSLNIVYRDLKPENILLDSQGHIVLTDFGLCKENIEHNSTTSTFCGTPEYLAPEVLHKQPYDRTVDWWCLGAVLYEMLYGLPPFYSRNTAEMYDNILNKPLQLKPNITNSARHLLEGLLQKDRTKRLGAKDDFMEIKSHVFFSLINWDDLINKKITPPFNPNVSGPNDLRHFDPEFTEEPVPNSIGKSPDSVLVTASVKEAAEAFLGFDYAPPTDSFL
Method: as §1, §2

[3] = test system: 63 isolated human protein kinases; test: Selectivity profile over 63 isolated human protein kinases; assay type: biochemical; settings: 10 μM TF, 10 μM ATP
Method: as §1
After the inhibitory potency of TF had been able to be established in LNCaP cells, the possibility that TF could be a selective CK2 inhibitor had to be investigated. To this end, the inhibiting effect of TF on 63 isolated human protein kinases (PK) was investigated by the firm “Reaction Biology” (Malvern, Pa., USA). These included representatives of PKs from all main groups of the human kinome (Manning et al., 2002). The results of this investigation are shown in FIG. 8, classified into the main human PK groups. In this series of tests, all of the PKs were each incubated with 10 μM of ATP and 10 μM of TF. In a subsequent radiometric test, the respective kinase activity with respect to a sample without TF was determined. Since the KM values of PK with respect to ATP occasionally differed substantially (Knight and Shokat, 2005), the results only allow a semi-quantitative comparison of inhibition by TF to be made. […]

CK2 = settings: prior-art value; read-out: IC50 (CK2, literature); cited from earlier work
[4] = prior art; lactam ring hydrolysis; cited from earlier work
[5] = prior art; cited from earlier work

## CC(=O)Oc1c(Cl)c(Cl)c2oc(C(=O)C=C(C)C)c(N)c2c1C#N [Ric152]
CK2 holoenzyme
  IC50: 200 nM

## CCOC(=O)c1oc2c(Cl)c(Cl)c(OC(C)=O)c(C#N)c2c1N [Ric138]
CK2 holoenzyme
  IC50: 2400 nM

## Cc1ccc(N/C=C2\C(=O)CCc3c2oc2c(Cl)c(Cl)c(O)cc32)cc1 [TF, (Z)-6,7-dichloro-1,4-dihydro-8-hydroxy-4-[(4-methylphenylamino)methylene]-dibenzo[b,d]furan-3(2H)-one]
CK2 holoenzyme; IC50 at 8 different ATP concentrations
  mode of inhibition: ATP competitive inhibitor
CK2 holoenzyme; Y-axis intersection of IC50 vs ATP concentration (8 ATP concentrations), read-out: inhibition constant Ki
  Ki: 14.7 nM
CK2 holoenzyme
  IC50: 30 nM
LNCaP cells; 25 μM, 24 h
  viability at 25 µM: 45%
LNCaP cells; 25 μM, 48 h
  viability at 25 µM: 37%
LNCaP cells; 25 μM, 72 h
  viability at 25 µM: 14%
LNCaP cells; 24 h
  viability at 50 µM: 30%
  viability at 75 µM: 31%
LNCaP cells; 48 h
  viability at 50 µM: 15%
  viability at 75 µM: 12%
LNCaP cells; 72 h
  viability at 50 µM: 5%
  viability at 75 µM: 3%
[1]; from 50 μM, 24 h and 48 h
  bands of the 89 kDa PARP fragment: increased in intensity in a concentration-dependent manner
[2]
  endogenous CK2 activity of LNCaP cells: 50%
CK2α (CK2a)
  remaining activity at 10 µM: 24%
Aurora A
  Activity Aurora A: 11.00%
CK2α′ (CK2a2)
  remaining activity at 10 µM: 35%
FLT4/VEGFR3
  Activity FLT4/VEGFR3: 19.68%
IRAK4
  kinase activity IRAK4: clear increase in activity
KDR/VEGFR2
  Activity KDR/VEGFR2: 13.05%
LBK1
  kinase activity LBK1: clear increase in activity
LCK
  Activity LCK: 29.20%
MAPK14
  kinase activity MAPK14: clear increase in activity
PAK4
  kinase activity PAK4: clear increase in activity
PIM1
  Activity PIM1: 19.90%
PKD2/PRKD2
  Activity PKD2/PRKD2: 20.90%
SGK1 (d1-59, S422D)
  Activity SGK1 (d1-59, S422D): 14.16%
[3]
  number of the 63 PK inhibited (reduction in activity of >50%) in addition to CK2α and CK2α′: twelve

## CCOC(=O)c1oc2ccc(OC(C)=O)c(CNC(C)=O)c2c1NC(C)=O [RicFur]
CK2 holoenzyme
  CK2-activity at 10 μM: 110%^

## O=c1cc(-c2ccc(O)cc2)oc2cc(O)cc(O)c12 [apigenin]
CK2
  IC50: ~1000 nM

## O=c1c2c(O)cccc2oc2c([N+](=O)[O-])ccc(O)c12 [MNX, 1,8-dihydro-4-nitroxanthen-9-one]
CK2
  IC50: 400 nM

## CC(C)=CC(=O)c1coc2ccc(O)cc12 [Ric149]
CK2 holoenzyme
  CK2-activity at 10 μM: 61%^

## CC1=C(Br)COc2c1ccc(O)c2Br [DBC, 3,8-dibromo-7-hydroxy-4-methyl-chromene]
CK2
  IC50: 100 nM

## O=C(O)Cc1c2ccccc2n2c1[nH]c(=O)c1ccccc12 [IQA, (5-oxo-5,6-dihydroindolo[1,2-a]quinazolin-7-yl) acetic acid]
[4]
  stability in aqueous media: unstable in aqueous media

## C=CC1=C(C)c2cc3[n-]c(cc4nc(cc5[n-]c(cc1n2)c(C)c5C=C)C(C)=C4CCC(=O)O)c(CCC(=O)O)c3C.[Fe+2] [Haematin]
CK2
  IC50: 550 nM

## Brc1c(Br)c(Br)c2[nH]nnc2c1Br [TBB, 4,5,6,7-tetrabrombenzotriazole]
LNCaP cells; 25 μM, 72 h
  viability of LNCaP cells: no effects were observed
LNCaP cells; 24 h
  viability at 75 µM: 90%
LNCaP cells; 48 h
  viability at 75 µM: 45%
LNCaP cells; 72 h
  viability at 75 µM: 17%
[1]; 25 μM
  bands of the 89 kDa PARP fragment: a faint band could be seen at 89 kDa
[1]; from 50 μM, 24 h and 48 h
  bands of the 89 kDa PARP fragment: almost identical results
[2]; 75 μM, 24 h, called most probably a rogue result
  CK2 activity of LNCaP cell lysate: 90%
[2]
  endogenous CK2 activity of LNCaP cells: 50%
[5]
  solubility in water: relatively poor solubility in water
